In publication PMC7371863, “Intracellular interplay between cholecystokinin and leptin signalling for satiety control in rats” (Scientific Reports, 2020):
“Also recorded” adds a separate entry of the source.

Legend:
[1] = tested on: CCK-2 receptor (C6 cells); assay: Ca2+ imaging (Fura-2), CCK-2 antagonism added to LGM in C6 cells; assay type: cell-based, rat; settings: LY225910 100 nM additional to LGM 100 nM; CCK-8s 10 nM; p < 0.01
Description: (§1) Rat C6 glioma cells were cultured in Dulbecco’s Modified Eagle Medium/F12 (DMEM/F12) supplemented with 10% FBS, sodium bicarbonate (1.2 g/L), and 1% penicillin/streptomycin antibiotics at 37 °C in 5% CO2. The full-length mouse leptin receptor (ObRb) in pcDNA3.1 vector was kindly provided by Dr. Christian Bjørbaek (BIDMC, Harvard Medical School, Boston, MA, USA) and transfected using Lipofectamine 2000. Subsequently, the cells were cultured in medium containing 500 μg/mL G418 for cell selection.
(§2) C6 cells plated on 35 mm plastic dishes were gently rinsed with buffered salt solution (BSS) consisting of 130 mM NaCl, 5.4 mM KCl, 2 mM CaCl2, 1 mM MgCl2, 5.5 mM D-glucose, and 10 mM HEPES/NaOH (pH 7.4), and incubated in BSS supplemented with 6 µM Fura-2 AM (Dojindo Laboratories, Kumamoto, Japan) for 30 min in a CO2 incubator. Prior to photometry, the cells were rinsed again with BSS, incubated at 37°C for 15 min, and then continuously perfused with BSS at 34°C at a flow rate of 3 mL/min. Fluorescence images were obtained using an upright microscope (Axioplan2; Carl Zeiss, Thornwood, NY, USA) with a water-immersion objective (Achroplan×20 NA0.5w; Carl Zeiss). The wavelength of the excitation UV light (340 nm or 380 nm pulse; 250 msec) was switched using a filter wheel (Lambda 10-2; Sutter Instruments, Novato, CA, USA). […] The background fluorescence was also subtracted using the software. […]

[2] = tested on: CCK-2 receptor (C6 cells); assay: Ca2+ imaging (Fura-2), CCK-2 receptor agonist response in C6 cells; assay type: cell-based, rat; settings: CCK-4 100 nM; n = 35/three dishes; Fura-2, 34°C, BSS pH 7.4
Description: as §1, §2

[3] = tested on: pSTAT3 in C6-ObRb cells; assay: Immunofluorescent staining of pSTAT3 in C6-ObRb cells; assay type: cell-based, rat C6 cells, mouse ObRb; settings: for cytosolic pSTAT3 signal with kinase inhibitor: AG490 1 µM or LY294002 50 µM
Description: as §1
[…] Cells were treatment with AG490 (1 μM) or LY294002 (50 μM) 15 min prior to the leptin stimulation until the time of fixation. These cells were fixed in 4% phosphate-buffered paraformaldehyde for 15 min and washed three times with PBS(−). The fixed samples were then incubated for 2 h at room temperature in 10% donkey serum dissolved in 0.1% Triton-X PBS(−). Next, samples were incubated with 1:100 affinity-purified rabbit phospho-STAT3 (pTyr^705) dissolved in 5% donkey serum PBS(−) for 24 h at 4 °C. After three 20-min PBS(−) rinses, samples were incubated in 1:400 Cy3-conjugated donkey anti-rabbit IgG for 2 h at room temperature. Finally, samples were rinsed with PBS(−) (four 15-min rinses on an orbital shaker) and mounted using Vectashield containing 4′,6-diamidino-2-phenylindole (DAPI).
(§3) Images were acquired using a confocal laser-scanning microscope (Olympus FV1000 or Nikon A1R MP plus) with a laser diode (405 nm), argon laser (488 nm), and helium neon laser ([…]). The nuclear immunofluorescent intensity (8-bit depth) was analyzed using Photoshop CS 6 software.

[4] = tested on: wild-type C6 cells; assay: Ca2+ imaging (Fura-2), leptin and CCK-8s signalling interaction in wild-type C6 cells; assay type: cell-based, rat
Description: as §1
C6 cells plated on 35 mm plastic dishes were gently rinsed with buffered salt solution (BSS) consisting of 130 mM NaCl, 5.4 mM KCl, 2 mM CaCl2, 1 mM MgCl2, 5.5 mM D-glucose, and 10 mM HEPES/NaOH (pH 7.4), and incubated in BSS supplemented with 6 µM Fura-2 AM (Dojindo Laboratories, Kumamoto, Japan) for 30 min in a CO2 incubator. Prior to photometry, the cells were rinsed again with BSS, incubated at 37°C for 15 min, and then continuously perfused with BSS at 34°C at a flow rate of 3 mL/min. Fluorescence images were obtained using an upright microscope (Axioplan2; Carl Zeiss, Thornwood, NY, USA) with a water-immersion objective (Achroplan×20 NA0.5w; Carl Zeiss). The wavelength of the excitation UV light (340 nm or 380 nm pulse; 250 msec) was switched using a filter wheel (Lambda 10-2; Sutter Instruments, Novato, CA, USA). The UV light was generated by a full spectrum 300W Xenon bulb (Lambda LS; Sutter Instruments), conducted to the microscope through a liquid light guide. The pair of fluorescent images was processed using a band-pass filter (485–515 nm) and exposed to a multiple format cooled CCD camera (CoolSnap-fx; Photometrics, Tucson, AZ, USA) at 6-sec intervals. The filter wheel and the CCD camera were controlled using digital imaging software (MetaFluor ver. 6.2; Japan Molecular Devices, Tokyo, Japan). The background fluorescence was also subtracted using the software.
During image acquisition, leptin (PeproTech, Rocky Hill, NJ, USA), CCK-4 (Peptide Institute, Inc., Osaka, Japan), CCK-8s (Sigma-Aldrich, St. Louis, MO, USA), AG490 (Calbiochem, San Diego, CA), LY294002 (Calbiochem), LY225910 (R&D Systems, Minneapolis, MN, USA), LGM (LKT Laboratories Inc., St. Paul, MN, USA), and ATP (Sigma-Aldrich) were applied by switching the perfusate. The magnitude of Ca^2+ responses was determined by peak area analysis using Origin 5.0 software (OriginLab, Northampton, MA, USA).

[5] = tested on: meal frequency / meal size; settings: CCK; cited from earlier work
Source text: Although CCK and leptin have been commonly described as satiety controlling peptides, their differential roles have also been highlighted. […] Among the wide variety of intracellular signalling machineries linked to ObRb, it is still uncertain which pathway(s) is/are linked to what type of satiety controls. pSTAT3-ir is used as a genera ...

[6] = tested on: Zucker fa/fa rats lacking functional leptin receptors; settings: cited from earlier work
Source text: (§4) Also, the effect of CCK on satiety control is attenuated in Zucker fa/fa rats lacking functional leptin receptors. In addition, other evidence implicated that leptin-mediated satiety-controlling systems may strongly interact with CCK systems[18],[50]–[54]. For example, c-Fos expression in oxytocin neurons in the hypothalamic paraventricular nucleus is elevated by leptin administration, and these neurons have axons tha ...

[7] = tested on: mice; settings: sub-threshold CCK and leptin, individually no effect on feeding; cited from earlier work
Source text: as §4

[8] = tested on: rats; settings: sub-threshold CCK and leptin, individually no effect on feeding; cited from earlier work
Source text: as §4

[9] = tested on: c-Fos and pSTAT3 in the ARC; assay: Nuclear c-Fos and pSTAT3 in ARC after i.p. LGM; assay type: in vivo, rat; settings: LGM 10 mg/kg i.p., 3 h, after RF, versus saline
Description: (§5) To investigate the cellular consequences underlying the above behavioral responses, the different groups of rats that received RF were killed 3-h after the LGM (10 mg/kg) or saline injections. Subsequently, nuclear pSTAT3-ir and c-Fos-ir were visualized in the […] by immunohistochemistry. An astrocyte marker (glial fibrillary acidic protein, GFAP) was counterstained as a landmark of ARC because ARC is the astrocyte-rich ventral neuronal nucleus (Fig. 8A). […]
as §3
(§6) Male rats aged 2–3 months were individually housed in originally designed cylindrical chambers (30 cm ϕ, H30 cm). […] Because the bottom of the pellet server was placed 22 cm above the floor, purposeful food access behavior, but not general locomotor activities, was counted using this system. The ON/OFF signals from the sensor were fed into a laptop computer through a photo-coupler isolated digital I/O card (Contec Inc. PIO-16/16L) and automatically counted at 3-min intervals by software written by M.I.

[10] = tested on: CCK-1 receptor; assay: Food access frequency after i.p. LGM following 1-h restricted feeding; assay type: in vivo, rat; settings: LGM 10 mg/kg i.p., 3 h before re-feeding; n = 5–6 per group; p < 0.05
Description: Male rats aged 2–3 months were individually housed in originally designed cylindrical chambers (30 cm ϕ, H30 cm). Food was given ad libitum from slits of stainless pellet server placed 22 cm above the floor. During the RF, rats were fed with fatty food paste composed of 50% nutrient commixture chow powder, 20% soybean oil, and 30% water on a glass dish. Following removal of the dish, sterilized saline (1 ml/kg body weight) were i.p. injected. Leftover food paste was weighed after RF to calculate daily intake. Rats were acclimatized to this environment for 4 days. On day 5 of RF, saline or LGM (2 or 10 mg/kg body weight) dissolved in saline was injected. Three hours after the drug injection, rats were re-fed with regular chow in a previously setup pellet server. A touch sensing probe (Elekit PS-306) was connected to the pellet server. Because the bottom of the pellet server was placed 22 cm above the floor, purposeful food access behavior, but not general locomotor activities, was counted using this system. The ON/OFF signals from the sensor were fed into a laptop computer through a photo-coupler isolated digital I/O card (Contec Inc. PIO-16/16L) and automatically counted at 3-min intervals by software written by M.I.

[11] = tested on: VMN cells; assay: Ca2+ imaging in rat VMN slices; assay type: cell-based; settings: LGM 1 µM; leptin 1–1,000 nM; p < 0.01 two-way ANOVA
[12] = tested on: c-Fos and pSTAT3 in the VMN; assay: Nuclear c-Fos and pSTAT3 in VMN after i.p. LGM; assay type: in vivo, rat; settings: LGM 10 mg/kg i.p., 3 h, after RF, versus saline
Description: as §5, §3, §6

CC(C)Oc1cccc(-n2c(CCc3c[nH]c4ccc(Br)cc34)nc3ccccc3c2=O)c1 [LY225910]
reduction of CCK-8s-induced Ca2+ transients [1]: almost completely reduced

CCK-4
C6 cells displaying Ca2+ transients [2]: approximately 20%

O=c1cc(N2CCOCC2)oc2c(-c3ccccc3)cccc12 [LY294002]
cytosolic pSTAT3 signal with kinase inhibitor [3]: cytosolic pSTAT3 signal was not elevated | nuclear pSTAT3-ir with PI3K inhibitor ([3]; LY294002 50 µM from 15 min prior to leptin stimulation until fixation, 30 images/three dishes, p < 0.01): significantly reduced nuclear pSTAT3-ir below the level of un-stimulated controls; also recorded: blocked leptin-induced nuclear pSTAT3 elevation | effect of PI3K inhibitor on (leptin-amplified) CCK-8s-induced Ca2+ mobilization ([4]; LY294002 50 µM, 10 min, leptin pre-treatment, CCK-8s, n = 45/three dishes): significantly inhibited CCK-8s-induced Ca^2+ mobilization; also recorded: significantly reduced leptin action for CCK-8s-induced Ca^2+ mobilization

cholecystokinin [CCK]
meal frequency [5]: reduce meal frequency | effect of CCK on satiety control in Zucker fa/fa rats [6]: attenuated | food intake, co-administration with leptin [7]: dramatically reduced food intake | food intake, co-administration with leptin [8]: dramatically reduced food intake

CCCCCN(CCCCC)C(=O)C(CCC(=O)O)NC(=O)c1ccc(Cl)c(Cl)c1 (stereo not shown) [LGM, lorglumide]
number of cells displaying c-Fos-ir, ARC [9]: failed to modulate the number of cells displaying c-Fos-ir | number of cells displaying pSTAT3-ir, ARC ([9]; 14 images in four rats, p < 0.01): increased number of cells displaying pSTAT3-ir | food access frequency at the onset of re-feeding relative to saline control [10]: 1.8 times | effect of CCK-1 antagonist on leptin-induced Ca2+ responses [11]: reduced leptin-induced Ca^2+ responses | number of cells displaying c-Fos-ir, VMN ([12]; 18 images in four rats, p < 0.05): significantly decreased the number of cells displaying c-Fos-ir | number of cells displaying pSTAT3-ir, VMN ([12]; P < 0.05): increased number of cells displaying pSTAT3-ir

N#C/C(=C/c1ccc(O)c(O)c1)C(=O)NCc1ccccc1 [AG490]
nuclear pSTAT3-ir with JAK inhibitor ([3]; AG490 1 µM from 15 min prior to leptin stimulation until fixation, 30 images/three dishes, p < 0.01): significantly reduced nuclear pSTAT3-ir below the level of un-stimulated controls; also recorded: blocked leptin-induced nuclear pSTAT3 elevation | cytosolic pSTAT3 signal with kinase inhibitor [3]: cytosolic pSTAT3 signal was not elevated | effect of JAK inhibitor on leptin amplification of CCK-8s-induced Ca2+ mobilization ([4]; AG490 1 μM, 10 min, leptin pre-treatment, CCK-8s, n = 48/three dishes): leptin failed to amplify the CCK-8s-induced Ca^2+ mobilization; also recorded: significantly reduced leptin action for CCK-8s-induced Ca^2+ mobilization

Nc1ncnc2c1ncn2[C@@H]1O[C@H](COP(=O)(O)OP(=O)(O)OP(=O)(O)O)[C@@H](O)[C@H]1O [ATP]
Ca2+ mobilization, positive control ([4]; ATP 100 µM at the end of experiment): High Ca^2+ mobilization
